Test results: publication PMC9821961, “Ring-Modified Histidine-Containing Cationic Short Peptides Exhibit Anticryptococcal Activity by Cellular Disruption” (Molecules, 2022)
≈ marks a conversion by molar mass, not a printed value.

Experiments:
C. neoformans cells = test: Cell death pattern analysis by flow cytometry (Annexin V-FITC/PI); type: cell-based, Cryptococcus neoformans; details: treated at MIC, 12 h; PI + annexin V-FITC
Text: Apoptosis includes a series of events occurring inside the cell, causing changes in plasma membrane, genetic material and various internal proteins, therefore leading to programmed cell death. One of the early markers of apoptosis is the translocation of a membrane phospholipid, phosphatidylserine, from the inner to the outer leaflet of the plasma membrane without altering the integrity of the plasma membrane. Annexin V-FITC interacts with the externalized phosphatidylserine, therefore showing the cell change towards apoptosis which can be analyzed using flow cytometry. The four quadrants in flow cytometry indicate different stages of the cells. The percentage depicts the population of the cells in a specific stage. Q1 corresponds to the percentage of cells undergoing necrosis, Q2 depicts the early apoptotic stage of the cells whereas Q4 corresponds to the cells in late-stage apoptosis and Q3 depicts the cells in the native state.
The treated cells along with a batch of untreated cells were centrifuged at 2000× g for 10 min at 4 °C and suspended in cold phosphate-buffered saline (PBS), followed by 2–3 washings with PBS. The harvested treated and untreated cells were then incubated with zymolyase for 1 h at ambient temperature to obtain cell protoplasm. The staining of obtained protoplasm was done using an Annexin V-FITC detection kit (Sigma-Aldrich, Saint Louis, DE, USA). The protoplasm of untreated cells was divided into 4 tubes (2 mL) and into 3 tubes a different staining agent was added while one was kept unstained. […] Furthermore, two more samples were prepared where protoplasm of 10d- and 10o-treated cells were stained with both PI and annexin V-FITC. All 6 samples were then analyzed by using an FACS Calibur (Becton-Dickinson, San Jose, CA, USA) at excitation of 488 nm (for FITC) and 560 nm (for PI) band filter. Approximately 10,000 cells were used for counting.

C. parapsilosis = test: microbe, parasite or virus in culture; type: cell-based, Candida parapsilosis; details: 48 h
Method in brief: (§1)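 Growth inhibition was measured by broth microdilution. MIC and IC50 were calculated from optical density at 600 nm after 48 h at 30 °C for Candida and Cryptococcus (10^3 CFU/mL, RPMI 1640 or YPED) and after 24 h at 37 °C for the Gram-positive bacteria (10^5 CFU/mL, Mueller Hinton).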

E. faecalis = test: microbe, parasite or virus in culture; type: cell-based, Enterococcus faecalis; details: 48 h
C. glabrata = test: microbe, parasite or virus in culture; type: cell-based, Candida glabrata; details: 48 h
Method in brief: (§2)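 Broth microdilution per CLSI was run on peptides serially diluted two-fold from DMSO stocks. Fungi (C. neoformans, C. glabrata) were tested at 10^3 CFU/mL in RPMI 1640/YPED for 48 h at 30 °C, and bacteria (S. aureus, E. faecalis) at 10^5 CFU/mL in Mueller Hinton for 24 h at 37 °C. IC50 and MIC came from OD600, with MTT staining used to visualise growth.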

C. albicans = test: microbe, parasite or virus in culture; type: cell-based, Candida albicans; details: 48 h
Method in brief: as §1

C. neoformans = test: microbe, parasite or virus in culture; type: cell-based, Cryptococcus neoformans; details: 48 h
Method in brief: as §2

in vitro = details: human, HEK-293 cells
Description: (§3) The cells (50,000 cells/well) were seeded to the wells of the plate in Dulbecco’s Modified Eagle Medium (DMEM) supplemented with 10% fetal bovine serum at 37 °C overnight and incubated for 24 h to achieve confluency. Peptides at different concentrations of 50, 25, 12.5, 6.25, 3.12, 1.56 and 0.78 μg/mL were added to the cells in separate wells and incubated at 37 °C for 18 h. A further 20 µL MTT solution (5 mg/mL stock conc. in PBS) was added and the plate was incubated for another 3–4 h. To detect the viable cells that react with MTT to make formazan crystals, 120 μL of supernatant was removed and 100 μL DMSO was added to dissolve the crystals. Untreated cells and DMSO (10%) were used as negative and positive controls, respectively [37]. The percent viability of cells was calculated using equation:(2) % Cell viability=Av. Absorbance of treated cells/Av. Absorbance of control cells×100

S. pyogens = test: microbe, parasite or virus in culture; type: cell-based, Streptococcus pyogenes; details: 48 h
P. aeruginosa = test: microbe, parasite or virus in culture; type: cell-based, Pseudomonas aeruginosa; details: 48 h

Description for HEK 293: as §3

| SMILES | Cell population in Q1 (necrosis) (C. neoformans cells) [%] | Cell population in Q2 (early apoptotic stage) (C. neoformans cells) [%] | Cell population in Q3 (native state) (C. neoformans cells) [%] | Cell population in Q4 (late-stage apoptosis) (C. neoformans cells) [%] | IC50 (C. parapsilosis) [µg/mL] | MIC (C. parapsilosis) [µg/mL] | IC50 (E. faecalis) [µg/mL] | MIC (E. faecalis) [µg/mL] | IC50 (C. glabrata) [µg/mL] | MIC (C. glabrata) [µg/mL] | IC50 (C. albicans) [µg/mL] | MIC (C. albicans) [µg/mL] | Cytotoxic nature (HEK 293) | IC50 (C. neoformans) [µg/mL] | MIC (C. neoformans) [µg/mL] | CC50 at 18 h (in vitro) [µg/mL] | IC50 (S. pyogens) [µg/mL] | MIC (S. pyogens) [µg/mL] | IC50 (P. aeruginosa) [µg/mL] | MIC (P. aeruginosa) [µg/mL] |
| --- | --- | --- | --- | --- | --- | --- | --- | --- | --- | --- | --- | --- | --- | --- | --- | --- | --- | --- | --- | --- |
| COC(=O)[C@H](Cc1ncn(Cc2cc(C(C)(C)C)cc(C(C)(C)C)c2)c1I)NC(=O)[C@@H](N)Cc1c[nH]c2ccccc12 [10d, Trp-His[1-(3,5-di-tert-butylbenzyl)-5-iodo]-OMe] | 1.7 | 1.3 | 44.8 | 52.2 | >35.2 | >64.0 | 17.6 (≈ 25.7 µM) | 32.0 (≈ 46.8 µM) | >35.2 | >64.0 | >35.2 | >64.0 | non-cytotoxic | 2.20 (≈ 3.22 µM) | 4.01 (≈ 5.87 µM) | > 100 | >35.2 | >64.0 | >35.2 | >64.0 |
| COC(=O)[C@H](Cc1ncn(Cc2ccccc2I)c1I)NC(=O)[C@@H](N)Cc1c[nH]c2ccccc12 [10o, Trp-His[1-(2-iodobenzyl)-5-iodo]-OMe] | 2 | 1 | 48.9 | 48.1 | >35.2 | >64.0 | 17.6 (≈ 25.2 µM) | 32.0 (≈ 45.9 µM) | >35.2 | >64.0 | >35.2 | >64.0 | non-cytotoxic | – | 4.59 (≈ 6.58 µM) | > 100 | >35.2 | >64.0 | >35.2 | >64.0 |
